In PubChem BioAssay (NCI) one finds TGI data, which are given here for 13 compounds.

Each structure is given as a SMILES string.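 A five-concentration, 48-hour dose response in 96-well plates underlies each endpoint, interpolated linearly between surrounding concentrations. TGI marks complete inhibition of growth.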

Test systems include A498 renal; DU-145 prostate; MDA-MB-435; ACHN renal; HT29 colon; RXF 393 renal; SF-539 CNS; U251 CNS; T-47D breast; OVCAR-8 ovarian.
Assay in all cases: growth of human tumour cells (NCI), 48 h

`O=C(/C=C/c1ccc(O)c(O)c1)OCCCc1ccccc1`: the TGI in the experiment on A498 renal was determined as 30.4 µM; in the experiment on DU-145 prostate, 31.6 µM; in the experiment with MDA-MB-435 it was 24.6 µM; with ACHN renal, 21.2 µM; in the experiment on HT29 colon, 48.4 µM; with RXF 393 renal, 25.5 µM. The TGI was 5.81 µM in the experiment with SF-539 CNS, 23.4 µM in the experiment with U251 CNS and 45.9 µM in the experiment with T-47D breast.

Consider `CCCSc1ccc2[nH]c(N3C(=O)/C(=C/c4ccco4)N=C3c3ccccc3)cc2c1`, for which the TGI was > 50 µM in the experiment with OVCAR-8 ovarian; > 50 µM in the experiment on A498 renal; > 50 µM in the experiment on DU-145 prostate; 28 µM with MDA-MB-435; > 50 µM in the experiment on ACHN renal; > 50 µM with HT29 colon. In addition, the TGI with RXF 393 renal is > 50 µM; in the experiment with SF-539 CNS it was 25 µM; in the experiment on T-47D breast, > 50 µM.

As for `C1CCC2(CC1)O[C@@H]1[C@@H](O2)[C@@H](O[C@H]2O[C@@H]3COC4(CCCCC4)O[C@H]3[C@@H]3OC4(CCCCC4)O[C@@H]23)O[C@@H]2COC3(CCCCC3)O[C@@H]12`, the TGI in the experiment with OVCAR-8 ovarian, with A498 renal, in the experiment on DU-145 prostate, with MDA-MB-435, with ACHN renal and with HT29 colon was > 100 µM in each case. The TGI with RXF 393 renal, with SF-539 CNS, in the experiment with U251 CNS and with T-47D breast was > 100 µM each time.

For the compound `CC(=O)OCCCOCn1c(Cc2ccccc2)c(C)c(=O)[nH]c1=O`, the TGI with OVCAR-8 ovarian, in the experiment with A498 renal, with DU-145 prostate, with MDA-MB-435, in the experiment with ACHN renal and with HT29 colon was > 100 µM in each case. The TGI with RXF 393 renal, in the experiment on SF-539 CNS, in the experiment on U251 CNS and in the experiment on T-47D breast was > 100 µM throughout.

On to `Cc1[nH]c2c(c1C)S(=O)(=O)c1cc3ccccc3nc1N2`, for which the TGI in the experiment with OVCAR-8 ovarian is 30.4 µM; in the experiment on A498 renal, > 100 µM; in the experiment with DU-145 prostate, > 100 µM; in the experiment on MDA-MB-435, > 100 µM; in the experiment with ACHN renal, > 100 µM; in the experiment with HT29 colon it was 28.2 µM. In addition, the TGI in the experiment with RXF 393 renal is 66.8 µM; in the experiment with SF-539 CNS, 25.2 µM; with U251 CNS, 23.8 µM; with T-47D breast, > 100 µM.

As to `CCCCC(C#N)(OP1(=O)OC(c2ccccc2)C(C)N1C)c1ccccc1` (stereo not given), the TGI in the experiment on OVCAR-8 ovarian came to 38.8 µM; in the experiment on A498 renal it was 33.6 µM; in the experiment on DU-145 prostate, 43.4 µM; with MDA-MB-435, 33.2 µM; in the experiment with ACHN renal it was 37.5 µM; in the experiment on HT29 colon it was 33.8 µM. Moreover, the TGI amounted to 33.1 µM with RXF 393 renal, 31.2 µM with SF-539 CNS, 31.4 µM with U251 CNS and 55.1 µM in the experiment with T-47D breast.

Turning to `COC(=O)C1Cc2c(OC)ccc(OC)c2CC(C(=O)OC)C1=O` (stereo not given), the TGI in the experiment on OVCAR-8 ovarian, in the experiment with A498 renal, in the experiment on DU-145 prostate, in the experiment with MDA-MB-435, with ACHN renal and in the experiment on HT29 colon was > 100 µM throughout. The TGI in the experiment on RXF 393 renal, in the experiment on SF-539 CNS, in the experiment with U251 CNS and with T-47D breast was > 100 µM throughout.

Take `COc1ccc2nc3ccc(OC)cc3c(SCCO)c2c1`: the TGI in the experiment with OVCAR-8 ovarian was > 55.4 µM; with A498 renal, > 100 µM; with DU-145 prostate, 37.1 µM; in the experiment on MDA-MB-435, > 100 µM; in the experiment with ACHN renal it was > 100 µM; with HT29 colon, > 48.2 µM. In addition, the TGI with RXF 393 renal was > 100 µM; in the experiment with SF-539 CNS, > 72.4 µM; in the experiment with U251 CNS, > 100 µM; in the experiment on T-47D breast, > 100 µM.

For `CC(O)c1cc2c(s1)C(=O)c1sccc1C2=O` (stereo not given), the TGI in the experiment on OVCAR-8 ovarian is 0.616 µM; in the experiment with A498 renal it was 0.429 µM; with DU-145 prostate, 0.0347 µM; with MDA-MB-435 it was 0.0522 µM; in the experiment with HT29 colon, 0.597 µM; in the experiment with RXF 393 renal it was 0.351 µM. For the same compound, in the experiment on T-47D breast, the TGI was 0.879 µM.

`COc1ccc2c(CCN)c(C(=O)O)[nH]c2c1`: the TGI with OVCAR-8 ovarian, in the experiment with A498 renal, in the experiment on DU-145 prostate, with MDA-MB-435, in the experiment with ACHN renal and in the experiment on HT29 colon was > 100 µM each time. Further, the TGI with RXF 393 renal, in the experiment with SF-539 CNS, in the experiment with U251 CNS and in the experiment on T-47D breast was > 100 µM throughout.

Take `C[C@H](CCC(=O)NCCS(=O)(=O)O)[C@H]1CC[C@H]2[C@@H]3CC[C@@H]4C[C@H](O)CC[C@]4(C)[C@H]3CC[C@]12C`: the TGI in the experiment on OVCAR-8 ovarian, with A498 renal, in the experiment on DU-145 prostate, in the experiment with MDA-MB-435, in the experiment with ACHN renal and in the experiment on HT29 colon was > 100 µM in each case. In addition, the TGI in the experiment on RXF 393 renal, in the experiment on SF-539 CNS, with U251 CNS and in the experiment on T-47D breast was > 100 µM in each case.

As to `COC(=O)C(Cc1c(C2Nc3ccccc3C2CC(NC(=O)CNC(C)=O)C(=O)OC)[nH]c2ccccc12)NC(=O)CNC(C)=O` (stereo not given), the TGI in the experiment on OVCAR-8 ovarian, with A498 renal, in the experiment on DU-145 prostate, in the experiment with MDA-MB-435, with ACHN renal and with HT29 colon was > 100 µM each time. For the same compound, the TGI with RXF 393 renal, in the experiment with SF-539 CNS, with U251 CNS and in the experiment with T-47D breast was > 100 µM each time.

Consider `COC(=O)NCCc1[nH]nc2c1C(=O)C=C(N1CCOCC1)C2=O`, for which the TGI with OVCAR-8 ovarian, in the experiment with A498 renal, with DU-145 prostate, in the experiment with MDA-MB-435, in the experiment on ACHN renal and in the experiment on HT29 colon was > 100 µM in each case. Besides, the TGI in the experiment with RXF 393 renal, with SF-539 CNS, in the experiment on U251 CNS and in the experiment with T-47D breast was > 100 µM each time.
